The values that follow come from ChEMBL document CHEMBL4428113, “Antitubercular and cytotoxic tigliane-type diterpenoids from Croton tiglium” (Bioorg Med Chem Lett, 2016).

One test has as its system A549. Put plainly: Cytotoxicity against human A549 cells after 72 hrs by CCK8 assay. The class given is functional, cell-based. The following applies: A549, 72 h.
A further test concerns Huh-7. Put plainly: Cytotoxicity against human HuH7 cells after 72 hrs by CCK8 assay. It counts as functional, cell-based. As to conditions: Huh-7, 72 h.
The next test concerns K562. Put plainly: Cytotoxicity against human K562 cells after 72 hrs by CCK8 assay. It counts as functional, cell-based. The following applies: K562, 72 h.
The subject of test [1] is Mycobacterium tuberculosis. Put plainly: Antitubercular activity against Mycobacterium tuberculosis H37Ra incubated for 7 days by Alamar blue dye-based fluorometric assay. The class given is functional, organism-based. As to conditions: 168 h.

`C/C=C(\C)C(=O)O[C@@H]1[C@@H](C)[C@]2(O)[C@@H]3C=C(C)C(=O)[C@@H]3CC(CO)=C[C@H]2[C@@H]2C(C)(C)[C@]12OC(C)=O`: the IC50 in the test on A549 came to 8.5 µM; in the test with Huh-7, 3.36 µM; with K562 it was 0.07 µM; in test [1], 20.5 µM.
With `CCC(C)C(=O)O[C@@]12[C@H](O)[C@@H](C)[C@@]3(O)[C@H]([C@@H]1C2(C)C)[C@@H](O)C(CO)=C[C@]1(O)C(=O)C(C)=C[C@@H]31` (some centres not stated), the IC50 was 8.86 µM in the test on A549, 11.6 µM in the test on Huh-7, 0.07 µM in the test with K562 and > 30 µM in test [1].
Regarding `CCC(C)C(=O)O[C@@]12[C@H](O)[C@@H](C)[C@@]3(O)[C@@H](C=C(CO)C[C@]4(O)C(=O)C(C)=C[C@@H]34)[C@@H]1C2(C)C` (some centres not stated), the IC50 in the test with A549 is 43.5 µM; in the test on Huh-7, 34.2 µM; with K562 it was 0.05 µM; in test [1], > 30 µM.
For `C/C=C(\C)C(=O)O[C@@H]1[C@@H](C)[C@]2(O)[C@@H]3C=C(C)C(=O)[C@@H]3CC(C=O)=C[C@H]2[C@@H]2C(C)(C)[C@]12OC(C)=O`, in that order: 6.88 µM, 3.85 µM, 0.03 µM and 19.5 µM.
The like results for `C/C=C(\C)C(=O)O[C@@H]1[C@@H](C)[C@@]2(O)[C@@H](C(=O)C(CO)=C[C@]3(O)C(=O)C(C)=C[C@@H]23)[C@@H]2C(C)(C)[C@]12OC(=O)C(C)C` were, in that order, 3.11 µM, 4.41 µM, 0.05 µM and 13.4 µM.
For `CCC(C)C(=O)O[C@@]12[C@H](O)[C@@H](C)[C@@]3(O)[C@@H](C(=O)C(CO)=C[C@]4(O)C(=O)C(C)=C[C@@H]34)[C@@H]1C2(C)C` (some centres not stated), in that order: 6.33 µM, 20.9 µM, 0.03 µM and 20.9 µM.
Consider `NNC(=O)c1ccncc1` [ISONIAZID], for which, in test [1], the IC50 is 2.04 µM.
As for `CC(=O)O[C@H]1C(=O)[C@@]2(C)[C@H]([C@H](OC(=O)c3ccccc3)[C@]3(O)C[C@H](OC(=O)[C@H](O)[C@@H](NC(=O)c4ccccc4)c4ccccc4)C(C)=C1C3(C)C)[C@]1(OC(C)=O)CO[C@@H]1C[C@@H]2O` [PACLITAXEL], the IC50 with A549 came to 1.92 µM; in the test on Huh-7, 6.75 µM; in the test on K562, 3.21 µM.
As for `CC1=C[C@H]2[C@@]3(O)[C@H](C)[C@@H](O)[C@]4(O)[C@H]([C@@H]3C=C(CO)C[C@]2(O)C1=O)C4(C)C` [PHORBOL], the half-inhibitory concentration (IC50) in the test with A549 is 15.3 µM; in the test on Huh-7, 5.93 µM; in the test with K562 it was 0.1 µM; in test [1] it was > 30 µM.
